Source: patent US8735414B2 (priority 2009, dated 2014)
pIC50: −log10 of the molar value.

Assays:
[1] = tested on: bicistronic HCV replicon (replicon RNA, GenBank Accession No. AJ242654); test: HCV Replicon Assay; format: cell-based; conditions: Hepatitis C virus, 72 h, read-out: Replicon IC50

Row | Compound | melting point [°C] | pIC50 [1]
1 | NC(=O)c1c(-c2ccc(S(=O)(=O)NC3(C(F)(F)F)CC3)cn2)n(C2CCC2)c2cc(OC(F)F)c(F)cc12 [compound 809, 1-cyclobutyl-6-(difluoromethoxy)-5-fluoro-2-(5-{[1-(trifluoromethyl)cyclopropyl]sulfamoyl}pyridin-2-yl)-1H-indole-3-carboxamide] | 197 to 200 | > 6.30
2 | CCc1ccc2c(C#N)c(-c3ccc(S(=O)(=O)NC(CF)CF)cn3)n(C3CCC3)c2c1 [compound 48, 6-(3-cyano-1-cyclobutyl-6-ethyl-1H-indol-2-yl)-N-(1,3-difluoropropan-2-yl)pyridine-3-sulfonamide] | 201 to 202 | > 6.30
3 | Cc1cc2c(cc1F)c(C#N)c(-c1ccc(S(=O)(=O)NC3(C(F)(F)F)CC3)cn1)n2C1CCC1 [compound 613, 6-(3-cyano-1-cyclobutyl-5-fluoro-6-methyl-1H-indol-2-yl)-N-[1-(trifluoromethyl)cyclopropyl]pyridine-3-sulfonamide] | 223 to 232 | > 6.30
4 | CNC(=O)c1c(-c2ccc(S(=O)(=O)NC(C)(C)C)cn2)n(C2CCC2)c2cc(C)c(F)cc12 [compound 795, 2-[5-(tert-butylsulfamoyl)pyridin-2-yl]-1-cyclobutyl-5-fluoro-N,6-dimethyl-1H-indole-3-carboxamide] | 215 to 218 | > 6.30
5 | COc1ccc(-n2c(-c3ccc(S(=O)(=O)NC(CF)CF)cn3)c(C#N)c3cc(F)ccc32)cc1 [compound 336, 6-[3-cyano-5-fluoro-1-(4-methoxyphenyl)-1H-indol-2-yl]-N-(1,3-difluoropropan-2-yl)pyridine-3-sulfonamide] | 198 to 200 | > 6.30
6 | CC(C)(C)NS(=O)(=O)c1ccc(-c2c(C#N)c3cc(OC(F)F)ccc3n2C2CCC2)nc1 [compound 20, N-tert-butyl-6-[3-cyano-1-cyclobutyl-5-(difluoromethoxy)-1H-indol-2-yl]pyridine-3-sulfonamide] | 167 to 170 | 5.70 to 6.30
7 | CCc1ccc2c(c1)c(C#N)c(-c1ccc(S(=O)(=O)N[C@@H](C)C(F)(F)F)cn1)n2C1CCCC1 [compound 374, 6-(3-cyano-1-cyclopentyl-5-ethyl-1H-indol-2-yl)-N-[(2S)-1,1,1-trifluoropropan-2-yl]pyridine-3-sulfonamide] | 159.5 to 160.5 | > 6.30
8 | C[C@H](NS(=O)(=O)c1cnc(-c2c(C#N)c3cc(C(F)F)ccc3n2C2CCC2)nc1)C(F)(F)F [compound 380, 2-[3-cyano-1-cyclobutyl-5-(difluoromethyl)-1H-indol-2-yl]-N-[(2S)-1,1,1-trifluoropropan-2-yl]pyrimidine-5-sulfonamide] | 186 to 188 | > 6.30
9 | Cc1cc2c(cc1F)c(C(N)=O)c(-c1ccc(S(=O)(=O)N[C@@H](C)C(F)(F)F)cn1)n2-c1cccc(F)n1 [compound 877, 5-fluoro-1-(6-fluoropyridin-2-yl)-6-methyl-2-(5-{[(2S)-1,1,1-trifluoropropan-2-yl]sulfamoyl}pyridin-2-yl)-1H-indole-3-carboxamide] | 210 to 214 | > 6.30
10 | N#Cc1c(-c2ccc(S(=O)(=O)NC(CF)CF)cn2)n(C2CCC2)c2cc(CC(F)F)ccc12 [compound 267, 6-[3-cyano-1-cyclobutyl-6-(2,2-difluoroethyl)-1H-indol-2-yl]-N-(1,3-difluoropropan-2-yl)pyridine-3-sulfonamide] | 166 to 168 | > 6.30
11 | C[C@H](NS(=O)(=O)c1cnc(-c2c(C#N)c3ccc(C4CC4)cc3n2C2CCC2)nc1)C1CC1 [compound 131, 2-(3-cyano-1-cyclobutyl-6-cyclopropyl-1H-indol-2-yl)-N-[(1S)-1-cyclopropylethyl]pyrimidine-5-sulfonamide] | 165 to 167 | > 6.30
12 | N#Cc1ccc2c(C#N)c(-c3ccc(S(=O)(=O)NC(CF)CF)cn3)n(C3CCC3)c2c1 [compound 465, 6-(3,6-dicyano-1-cyclobutyl-1H-indol-2-yl)-N-(1,3-difluoropropan-2-yl)pyridine-3-sulfonamide] | 203 to 204 | > 6.30
13 | Cc1ccc2c(C#N)c(-c3ccc(S(=O)(=O)NC(C)(C)C(F)(F)F)cn3)n(-c3ccccc3)c2c1 [compound 585, 6-(3-cyano-6-methyl-1-phenyl-1H-indol-2-yl)-N-(1,1,1-trifluoro-2-methylpropan-2-yl)pyridine-3-sulfonamide] | 210 to 212 | > 6.30
14 | Cc1csc(-n2c(-c3ccc(S(=O)(=O)N[C@@H](C)C(F)(F)F)cn3)c(C#N)c3cc(F)c(C)cc32)n1 [compound 1038, 6-[3-cyano-5-fluoro-6-methyl-1-(4-methyl-1,3-thiazol-2-yl)-1H-indol-2-yl]-N-[(2S)-1,1,1-trifluoropropan-2-yl]pyridine-3-sulfonamide] | 206.3 to 211.7 | > 6.30
15 | Cc1cc2c(cc1F)c(C#N)c(-c1ccc(S(=O)(=O)N[C@@H](C)C(F)(F)F)cn1)n2-c1cccs1 [compound 990, 6-[3-cyano-5-fluoro-6-methyl-1-(thiophen-2-yl)-1H-indol-2-yl]-N-[(2S)-1,1,1-trifluoropropan-2-yl]pyridine-3-sulfonamide] | 233 to 240 | > 6.30
16 | C[C@H](NS(=O)(=O)c1ccc(-c2c(C#N)c3ccc(OC(F)(F)F)cc3n2C2CCCC2)nc1)C1CC1 [compound 320, 6-[3-cyano-1-cyclopentyl-6-(trifluoromethoxy)-1H-indol-2-yl]-N-[(1S)-1-cyclopropylethyl]pyridine-3-sulfonamide] | 133 to 134 | 5.70 to 6.30
17 | C[C@H](NS(=O)(=O)c1ccc(-c2c(C#N)c3ccc(OC(F)F)cc3n2-c2ccccc2)nc1)C(F)(F)F [compound 553, 6-[3-cyano-6-(difluoromethoxy)-1-phenyl-1H-indol-2-yl]-N-[(2S)-1,1,1-trifluoropropan-2-yl]pyridine-3-sulfonamide] | 209 to 211 | > 6.30
18 | Cc1ccc2c(C#N)c(-c3ccc(S(=O)(=O)N[C@@H](C)C(F)(F)F)cn3)n(CC3CC3)c2c1 [compound 353, 6-[3-cyano-1-(cyclopropylmethyl)-6-methyl-1H-indol-2-yl]-N-[(2S)-1,1,1-trifluoropropan-2-yl]pyridine-3-sulfonamide] | 165 to 168 | > 6.30
19 | CCc1cc2c(cc1F)c(C(N)=O)c(-c1ccc(NS(=O)(=O)C(C)(C)C)nc1)n2[C@@H](C)C1CC1 [compound 1083, 2-{6-[(tert-butylsulfonyl)amino]pyridin-3-yl}-1-[(1S)-1-cyclopropylethyl]-6-ethyl-5-fluoro-1H-indole-3-carboxamide] | 256 to 259 | > 6.30
20 | Cc1cc2c(cc1F)c(C(N)=O)c(-c1ccc(S(=O)(=O)N[C@@H](C)C(F)(F)F)cn1)n2-c1ncccc1F [compound 902, 5-fluoro-1-(3-fluoropyridin-2-yl)-6-methyl-2-(5-{[(2S)-1,1,1-trifluoropropan-2-yl]sulfamoyl}pyridin-2-yl)-1H-indole-3-carboxamide] | 130 to 138 | 5.70 to 6.30
